Test results from US20240391912A1, “MORPHIC FORMS OF CFT7455 AND METHODS OF MANUFACTURE THEREOF” (C4 THERAPEUTICS, INC., priority 2022, published 2024).
Converted amounts (≈) assume the structure as drawn.

Legend:
[1] = system: relapsed/refractory (r/r) MCL; details: r/r subjects with MCL following bortezomib; cited from earlier work
[2] = Bulk stability of Compound 5 Form VI and Form VIII at 25° C./60% RH, open container, 1 week (XRPD, HPLC, color); assay type: physicochemical; details: listed as Form VIII
Procedure: Compound 5 Form VI and Form VIII were placed at 25° C./60% RH in an open container over 1 week. Samples after the stress were characterized by XRPD and HPLC and inspected for color change.

[3] = Approximate solubility of Compound 5 polymorphs in EtOH:DCM (v:v=1:4); assay type: physicochemical; details: EtOH:DCM (v:v = 1:4), 25° C.
Procedure: Four polymorphs (Form V, Form VI, Form VII and Form VIII) were weighed respectively and a suitable amount of solvent mixture EtOH:DCM (v:v=1:4) was added. The obtained samples were stirred at a rate of 400 rpm at 25° C.

[4] = Solubility of Compound 5 Form VI and Form VIII at 25° C., equilibration for 24 hours (HPLC; XRPD of residual solids); assay type: physicochemical
Procedure: 11 mg (for 20 mg/mL target concentration) or 22 mg (for 50-60 mg/mL target concentration) of Compound 5 Form VI and Form VIII (equivalent to 10 mg or 20 mg of anhydrate free base) was weighed into a 4 mL glass vial, respectively. Up to 0.5 mL of potential eluent medium was added. The obtained suspensions/solutions were stirred at 25° C. at 400 rpm for 24 hours and then centrifuged at 25° C. at 14,000 rpm for 5 minutes. The residual solids were characterized by XRPD to determine the physical form. The supernatants (0.1 mL) were evaporated at about 22-25° C./30-60% RH.

[5] = Characterization of polymorphs and pseudo-polymorphs of Compound 5; assay type: physicochemical
[6] = Crystallization of Compound 5 by addition of anti-solvent; assay type: physicochemical
Procedure: The obtained solutions were filtered through a 0.45 μm syringe membrane filter. […] Precipitates were investigated by XRPD. For samples with different XRPD patterns, ^1H-NMR was performed.

[7] = Equilibration of Compound 5 Form V with solvents at 25° C. for 1 week (XRPD); assay type: physicochemical
Procedure: The obtained suspensions were centrifuged at 14,000 rpm. The solid parts (wet cakes) were investigated by XRPD.

[8] = Crystallization of Compound 5 from hot saturated solutions by fast cooling; assay type: physicochemical; details: fast cooling to about 0° C.
Procedure: Based on approximate solubility results, about 30 mg of Compound 5 Form V was dissolved in a minimal amount of selected solvent at 50° C. […] No precipitate came out by fast cooling.

[9] = Crystallization of Compound 5 at room temperature by fast evaporation; assay type: physicochemical
Procedure: Based on approximate solubility results, about 20 mg of Compound 5 Form V was dissolved in 1-6 mL of solvents. […] The solid residue was investigated by XRPD. For samples with different XRPD patterns, ^1H-NMR was performed.

[10] = Approximate solubility of Compound 5 Form V at 25° C. (visual observation / HPLC); assay type: physicochemical; details: for solubility: solubilized at about 25° C.
Procedure: About 5 mg of Compound 5 Form V was weighed to an 8 mL glass vial. 100 μL aliquots of each solvent were added to dissolve the drug substance at 25° C. Vortex and sonication were applied to assist dissolution. The maximum volume of each solvent added is 1 mL. Approximate solubility was determined by visual observation.
For low solubility samples: Aliquots of selected solvent were added to 5 mg of Compound 5 create a suspension. The suspensions were kept at 25° C. for 24 hours. The suspension was taken out and centrifuged. To eliminate solvent effect, 50 μL or 100 μL of supernatant was added into a 2 mL glass vial and evaporated at ambient condition (22-25° C., 30-60% RH).

[11] = THF/water (v:v = 1:2.5), 25° C., 24 hours, target conc. 20 mg/mL, listed as Form VIII

Nc1cccc2c1CN(C1CCC(=O)NC1=O)C2=O (stereo not shown) [lenalidomide]
median duration of response [DOR] [1]: 16.6 months
overall response rate [ORR] [1]: 28%

O=C1CCC(N2C(=O)c3cccc4c(Cc5ccc(CN6CCOCC6)cc5)ccc2c34)C(=O)N1 (racemic) [Compound 5 Form VIII]
bulk stability, physical (form) [2]: converted to Form V
Bulk (HPLC) Purity ([2]; solid state, initial purity 93.1% (Form VI), 95.6% (Form VIII)): 95.6%
Bulk (XRPD) ([2]; solid state): Form V
Approximate solubility (visual appearance) ([3]; concentration 10 mg/mL, listed as Form VIII): Few solids
Approximate solubility (visual appearance) ([3]; concentration 20 mg/mL, listed as Form VIII): Few solids
solubility ([4]; EtOH/DCM (v:v = 1:4), 25° C., 24 hours, target conc. 50-60 mg/mL, LOQ 0.8 μg/mL, listed as Form VIII): 39 mg/mL (≈ 83.1 mM)
physical form after solubility test ([4]; EtOH:DCM (v:v=1:4), 25° C., 24 h): Physical mixture of Form V and Form VI
XRPD of residual solids ([4]; MeOH/DCM (v:v = 1:2), 25° C., 24 hours, target conc. 50-60 mg/mL): Form V
physical form after solubility test ([4]; MeOH:DCM (v:v=1:2) and THF:water (v:v=1:2.5), 25° C., 24 h): converted to Form V
solubility ([4]; THF/IPA (v:v = 1:2), 25° C., 24 hours, target conc. 20 mg/mL, listed as Form VIII): 1 mg/mL (≈ 2.13 mM)
XRPD of residual solids [4, 11]: Form V
solubility [4, 11]: 0.5 mg/mL (≈ 1.06 mM)
physical form after solubility test ([4]; THF:2-propanol (v:v=1:2) and THF:Heptane (v:v=1:2), 25° C., 24 h): converted to Form VI
solubility ([4]; in EtOH/DCM (v:v=1:4), about 25° C., 24 h, listed as Form VIII): ~39 mg/mL (≈ 83.1 mM)
solubility ([4]; in MeOH:DCM (v:v=1:2) and EtOH:DCM (v:v=1:4), 25° C. for 24 h, listed as Form VIII): 30 to 40 mg/mL
Dehydration and evaporation of solvent from (by DSC) ([5]; DSC): about 8° C.;
Enthalpy (by DSC) ([5]; DSC, listed as Form VIII): 105 J/g
Melting onset Tonset (by DSC) ([5]; DSC, listed as Form VIII): Tonset 231.4° C.,
Weight loss (by TGA) ([5]; at 200° C.): 4.7% at 200 °C
Residual ion (by IC): Br− ([5]; listed as Form VIII): Br^−: 0.01 equiv.
Residual ion (by IC): Cl− ([5]; listed as Form VIII): Cl^−: 0.005 equiv.;
Residual ion (by IC): Li+ ([5]; listed as Form VIII): Li^+: 0.04 equiv.;
Residual ion (by IC): Na+ ([5]; listed as Form VIII): Na^+: 0.01 equiv.

O=C1CCC(N2C(=O)c3cccc4c(Cc5ccc(CN6CCOCC6)cc5)ccc2c34)C(=O)N1 (racemic) [Compound 5 Form V]
Additional analysis 1H-NMR: DMF ([6]; precipitate (Form VIII) from DMF(1.0 mL)/H2O (2.0 mL)): 2 equiv. DMF
XRPD ([6]; solvent DMF(1.0 mL), anti-solvent H2O (2.0 mL)): Form VIII
XRPD ([7]; equilibration in Acetone): Form V
XRPD ([7]; equilibration in Benzyl alcohol): Form V
XRPD ([7]; equilibration in Chloroform): Form V
XRPD ([7]; equilibration in DMF): Form V
XRPD ([7]; equilibration in MeOH/DCM (v:v = 1:1)): Form V
XRPD ([7]; equilibration in Pyridine, wet cake): Form V
XRPD ([7]; equilibration in THF): Form V
XRPD ([7]; equilibration in Trifluoroethanol): Form V
Comments ([8]; 1-Methyl-2-pyrrolidinone, 50° C.): Clear solution
Comments ([8]; Acetone, dissolved at 50° C.): Clear solution
Comments ([8]; Benzyl alcohol, 50° C.): Clear solution
Comments ([8]; Chloroform, 50° C.): Clear solution
Comments ([8]; DMF, 50° C.): Clear solution
Comments ([8]; Pyridine, 50° C.): Clear solution
Comments ([8]; THF, 50° C.): Clear solution
Comments ([8]; Trifluoroethanol, 50° C.): Clear solution
XRPD ([9]; fast evaporation from 1-Methyl-2-pyrrolidinone): Form VII
XRPD ([9]; fast evaporation from Benzyl alcohol): Form V
XRPD ([9]; fast evaporation from Chloroform): Amorphous form
XRPD ([9]; fast evaporation from DMSO, room temperature, dry nitrogen flow): Form VI
XRPD ([9]; fast evaporation from THF): Form V
Additional analysis (appearance of residue) ([9]; fast evaporation from Trifluoroethanol): Oil
Additional analysis 1H-NMR: DMSO ([9]; residue (Form VI) of fast evaporation from DMSO): ^1H-NMR: 0.4 equiv. DMSO
Additional analysis 1H-NMR: NMP ([9]; residue (Form VII) of fast evaporation from 1-Methyl-2-pyrrolidinone, 2 unknown peaks): ^1H-NMR: 1.6 equiv. NMP;
Approximate solubility (visual appearance) ([3]; concentration 5 mg/mL): Suspension
Approximate solubility (visual appearance) ([3]; concentration 10 mg/mL, listed as Form V): Suspension
Approximate solubility (visual appearance) ([3]; concentration 20 mg/mL, listed as Form V): Suspension
Solubility (mg/mL) at 25° C. ([10]; 1,4-Dioxane, tested by HPLC): 2.3 mg/mL (≈ 4.9 mM)
Solubility (mg/mL) at 25° C. ([10]; 1-Methyl-2-pyrrolidinone, tested by observation): >50 mg/mL
Solubility (mg/mL) at 25° C. ([10]; 2-Me THF, tested by HPLC): 0.2 mg/mL (≈ 0.426 mM)
Solubility (mg/mL) at 25° C. ([10]; Acetic acid, tested by HPLC): 5.5 mg/mL (≈ 11.7 mM)
Solubility (mg/mL) at 25° C. ([10]; Acetone, tested by HPLC): 3.3 mg/mL (≈ 7.03 mM)
Solubility (mg/mL) at 25° C. ([10]; Acetonitrile, tested by HPLC): 2.2 mg/mL (≈ 4.69 mM)
Solubility (mg/mL) at 25° C. ([10]; Anisole, tested by HPLC): 1.1 mg/mL (≈ 2.34 mM)
Solubility (mg/mL) at 25° C. ([10]; Benzyl alcohol, tested by observation): 12 to 25 mg/mL
Solubility (mg/mL) at 25° C. ([10]; Chloroform, tested by observation): 5 to 10 mg/mL
Solubility (mg/mL) at 25° C. ([10]; DMF, tested by observation): 25 to 50 mg/mL
Solubility (mg/mL) at 25° C. ([10]; DMSO, tested by observation): >50 mg/mL
Solubility (mg/mL) at 25° C. ([10]; Ethanol, tested by HPLC): 0.6 mg/mL (≈ 1.28 mM)
Solubility (mg/mL) at 25° C. ([10]; Ethyl acetate, tested by HPLC): 0.1 mg/mL (≈ 0.213 mM)
Solubility (mg/mL) at 25° C. ([10]; MeOH/DCM (v:v = 1:1), tested by observation): ~5 mg/mL (≈ 10.6 mM)
Solubility (mg/mL) at 25° C. ([10]; Methanol, tested by HPLC): 0.2 mg/mL (≈ 0.426 mM)
Solubility (mg/mL) at 25° C. ([10]; Propylene glycol methyl ether, tested by HPLC): 2.3 mg/mL (≈ 4.9 mM)
Solubility (mg/mL) at 25° C. ([10]; Propylene glycol, tested by HPLC): 3.4 mg/mL (≈ 7.24 mM)
Solubility (mg/mL) at 25° C. ([10]; Pyridine, tested by observation): 25 to 50 mg/mL
Solubility (mg/mL) at 25° C. ([10]; THF, tested by HPLC): 3.8 mg/mL (≈ 8.09 mM)
Solubility (mg/mL) at 25° C. ([10]; Toluene, tested by HPLC): 0.2 mg/mL (≈ 0.426 mM)
Solubility (mg/mL) at 25° C. ([10]; Trifluoroethanol, tested by observation): 25 to 50 mg/mL
solubility ([10]; in 1-methyl-2-pyrrolidinone): at least 50 mg/mL
solubility ([10]; in DMSO): at least 50 mg/mL
Residual solvent (by 1H-NMR): THF [5]: 0.4% residual of
Endothermic onset (by DSC) ([5]; DSC): onset at 220.0 °C
Dehydration (by DSC) ([5]; DSC, listed as Form V): Tonset 38.5° C.;
Crystallinity (by XRPD) ([5]; XRPD method 2): Crystalline
Weight loss (by TGA) ([5]; at 140° C.): 5.1% at 140 °C
